What was measured:
[1] = molecular target: T1, factor Xa (Homo sapiens, UniProt P00742); assay: Factor Xa chromogenic substrate hydrolysis assay; assay type: biochemical
T1 construct: purchased Haematologic Technologies (Essex Junction, Vt.); host or cells: human plasma
Description: Plasma FIX (500 nM) was incubated with human FXIa (3 nM) in 50 mM Hepes buffer, pH 7.4, containing 125 mM NaCl, 5 mM CaCl2, and 0.1 mg/mL bovine serum albumin at 24° C. […] The primary antibody was goat anti-human FIX polyclonal IgG (Enzyme Research Laboratories, South Bend, Tenn.), and the secondary antibody was horseradish peroxidase-conjugated anti-goat IgG. Detection was by chemiluminescence. […] The inhibition profile was determined over a range of inhibitor concentrations to determine the IC50 of the enzyme-inhibitor complex. The KM of the substrate for its enzyme was used to identify the concentration of the substrate to be used for inhibition studies. […] Active site concentrations for preparations of FXIa were determined by titrations with human antithrombin in an S-2366 cleavage assay. The reaction was monitored using a SpectraMax 340 microtiter plate reader (Molecular Devices Corp., Sunnyvale, Calif.) with a reaction volume of 100 μL and path length of 3 mm. Each assay was performed in triplicate. The concentration of S-2366 was measured using an absorption coefficient of 8,266 M-1cm-1 at λ342 nm, while the free p-nitroaniline concentration was calculated using an absorption coefficient of 9,933 M cm^−1 at λ405 nm. The data was fitted using the standard Michaelis-Menten equation to determine the KM and VMAX. Results
Inhibition of Proteases of the Coagulation and Digestive Systems by 16S. The inhibition potential of 500 μM SAM (16S, 15S, 13S) against coagulation enzymes including thrombin and factor Xa and digestive enzymes including trypsin and chymotrypsin was evaluated using chromogenic substrate hydrolysis assays reported in the literature.^2,3,6 These assays were performed using substrates appropriate for the enzyme being studied under conditions closest to the physiological condition (37° C. and pH 7.4), except for thrombin, which was performed at 25° C. and pH 7.4. The concentrations of enzymes and substrates in microplate wells, respectively, were: 6 nM and 50 μM for thrombin; 1.09 nM and 125 μM for factor Xa, 2.5 ng/ml and 80 μM for bovine trypsin; and 500 ng/ml and 240 μM for bovine chymotrypsin. The ratio of the proteolytic activity of an enzyme in the presence of the sulfated QAO to that in its absence was used to calculate percent inhibition (%).

[2] = molecular target: T2, factor XIIa (Homo sapiens, UniProt P00748); assay: Factor XIIa chromogenic substrate hydrolysis assay; assay type: biochemical
T2 construct: purchased Enzyme Research Laboratories (South Bend, Ind.)
T2 sequence (P00748 373-615 limits assumed): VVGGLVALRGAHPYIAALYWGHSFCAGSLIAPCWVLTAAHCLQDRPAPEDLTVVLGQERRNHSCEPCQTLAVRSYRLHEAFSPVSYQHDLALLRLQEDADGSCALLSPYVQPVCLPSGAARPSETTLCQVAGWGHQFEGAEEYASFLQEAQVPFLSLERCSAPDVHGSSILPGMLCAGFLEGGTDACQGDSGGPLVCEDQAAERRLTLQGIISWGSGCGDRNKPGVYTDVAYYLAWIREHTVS

[3] = system: human plasma; assay: Activated partial thromboplastin time (APTT) plasma clotting assay; assay type: biochemical
Description: (§1) Plasma clotting assays, prothrombin and activated partial thromboplastin time (PT and APTT, respectively), are routinely used to assess the anticoagulation potential of new enzyme inhibitors in an in vitro setting. Whereas PT measures the effect of an inhibitor on the extrinsic pathway of coagulation, APTT measures the effect on the intrinsic pathway.
(§2) Prothrombin Time (PT) and Activated Partial Thromboplastin Time (APTT) were assessed as described in Example 1.

[4] = system: human plasma; assay: Prothrombin time (PT) plasma clotting assay; assay type: biochemical
Description: as §1, §2

[5] = system: human whole blood; assay: Thromboelastography of clot formation in whole blood; parameters: G: unit not given here
Description: To assess the anticoagulation properties of SPGG in human whole blood, thromboelastography was employed. This technique is an ex vivo protocol often utilized to evaluate the anticoagulant activity of low molecular weight heparins (LMWHs) in whole blood.^13-16Thromboelastography monitors the thrombodynamic properties of blood as it is induced to clot under a low shear environment resembling sluggish venous flow. These thrombodynamic properties are expected to dramatically change in presence of anticoagulant in blood. The blood clot formation is recorded as a force transduced on a pin at the center of a blood-containing cup. The kinetics of clot formation and growth as well as the strength and stability of the formed clot are measured through parameters such as maximum amplitude (MA) of clot formation; shear elastic modulus strength (G) of clot; the reaction time (R) for the start of clotting; and the angle α, which is a measure of fibrin build-up and cross-linking (FIG. 8).

T1 sequence (P00742 235-488 limits assumed): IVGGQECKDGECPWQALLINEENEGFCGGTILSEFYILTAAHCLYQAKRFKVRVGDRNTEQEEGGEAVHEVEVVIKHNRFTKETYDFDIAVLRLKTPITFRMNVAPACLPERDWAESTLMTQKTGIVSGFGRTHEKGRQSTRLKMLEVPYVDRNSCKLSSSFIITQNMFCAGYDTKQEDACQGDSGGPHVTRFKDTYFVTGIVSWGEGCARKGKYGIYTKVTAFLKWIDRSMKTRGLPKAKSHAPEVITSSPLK
T1 sequence (P00742 41-179 partner limits assumed): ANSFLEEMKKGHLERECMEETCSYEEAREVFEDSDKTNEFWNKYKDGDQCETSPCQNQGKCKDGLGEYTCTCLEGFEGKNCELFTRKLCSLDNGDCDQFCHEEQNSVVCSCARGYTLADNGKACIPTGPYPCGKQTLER

O=C(OC[C@H]1O[C@@H](OC(=O)c2cc(OS(=O)(=O)O)c(O)c(OS(=O)(=O)O)c2)[C@H](OC(=O)c2cc(OS(=O)(=O)O)c(O)c(OS(=O)(=O)O)c2)[C@@H](OC(=O)c2cc(OS(=O)(=O)O)c(O)c(OS(=O)(=O)O)c2)[C@@H]1OC(=O)c1cc(OS(=O)(=O)O)c(O)c(OS(=O)(=O)O)c1)c1cc(OS(=O)(=O)O)c(O)c(OS(=O)(=O)O)c1 [SPGG, Sulfated Pentagalloylglucoside]
HS [1]: 0.8 ± 0.2 | IC50 [1]: 153 µM | ΔY [1]: 101.9 ± 3.5 | selectivity over factor Xa ([1]; FXIa vs factor Xa): 221 fold | HS [2]: 3.0 ± 1.8 | IC50 [2]: 147 µM | ΔY [2]: 55.7 ± 5.9 | selectivity over factor XIIa ([2]; FXIa vs factor XIIa): 200 fold | fold less effective than enoxaparin ([3]; at molar levels): 36 fold | APTT doubling potency relative to enoxaparin (fold less) ([3]; by weight (μg/mL)): 18 fold | concentration for 2-fold increase in APTT ([3]; human plasma): 96 µg/mL | concentration for 2-fold increase in PT [4]: 298 µg/mL | reduction of G ([5]; SPGG 0-280 μg/mL): ~8 fold | reduction of MA ([5]; SPGG 0-280 μg/mL): ~4 fold | G ([5]; SPGG 20 μg/mL): 8.2 × 10^3 | MA ([5]; SPGG 20 μg/mL): 62 mm | R ([5]; SPGG 20 μg/mL): 6.6 min | α ([5]; SPGG 20 μg/mL): 51.4 degs | G ([5]; SPGG 135 μg/mL): 5.0 × 10^3 | MA ([5]; SPGG 135 μg/mL): 49.8 mm | R ([5]; SPGG 135 μg/mL): 22.8 min | α ([5]; SPGG 135 μg/mL): 30.6 degs | G ([5]; SPGG 190 μg/mL): 3.8 × 10^3 | MA ([5]; SPGG 190 μg/mL): 43.5 mm | R ([5]; SPGG 190 μg/mL): 37.8 min | α ([5]; SPGG 190 μg/mL): 9.4 degs | G ([5]; SPGG 280 μg/mL): 0.9 × 10^3 | MA ([5]; SPGG 280 μg/mL): 15.1 mm | R ([5]; SPGG 280 μg/mL): 87.1 min | α ([5]; SPGG increased from 0 to 280 μg/mL): less than 9.4 °

Reference: patent publication US9758459B2, “Allosteric modulators of factor XIa as anticoagulant agents” (VIRGINIA COMMONWEALTH UNIVERSITY, priority 2012, dated 2017)
